Legend:
[1] = target: T1, Lysophosphatidic acid receptor 3 (Homo sapiens, UniProt Q9UBY5); assay: LPAR3 Calcium Flux Assays: A cDNA encoding the human LPAR3 receptor is synthesized and cloned into pDNA3 expression plasmid. The plasmid is transfected in U2OS cells using Lipofectamine 2000 (Invitrogen Corp., USA). Clones stably expressing human LPAR3 are selected using neomycin and identified as cells that show Ca-influx in response to LPA.U2OS cells overexpressing human LPAR3 are seeded at 20,000-40,000 cells per well in a 96-well poly-D-lysine coated plate one day before the assay. Prior to the assay, the cells are washed once with assay buffer (HBSS containing 20 mM HEPES and 0.2% BSA) and then incubated in 50 μl of assay buffer for 60 minutes. Then 50 μl of a calcium indicator dye (Fluo-4 NW, Molecular Probes) are added to each well and incubation is continued for 30 minutes at 37° C. and then 30 minutes at room temperature. 50 μl of test compounds in 4% DMSO are added to the cells and incubation continued at room temperature for 40 minutes. Cells are stimulated by the addition of 50 μl of 128 nM LPA and intracellular calcium is measured using the FLIPR TETRA (Molecular Devices). IC50 values are determined using “Genedata Screener” analysis tool.; format: cell-based
T1 sequence (Q9UBY5 whole entry): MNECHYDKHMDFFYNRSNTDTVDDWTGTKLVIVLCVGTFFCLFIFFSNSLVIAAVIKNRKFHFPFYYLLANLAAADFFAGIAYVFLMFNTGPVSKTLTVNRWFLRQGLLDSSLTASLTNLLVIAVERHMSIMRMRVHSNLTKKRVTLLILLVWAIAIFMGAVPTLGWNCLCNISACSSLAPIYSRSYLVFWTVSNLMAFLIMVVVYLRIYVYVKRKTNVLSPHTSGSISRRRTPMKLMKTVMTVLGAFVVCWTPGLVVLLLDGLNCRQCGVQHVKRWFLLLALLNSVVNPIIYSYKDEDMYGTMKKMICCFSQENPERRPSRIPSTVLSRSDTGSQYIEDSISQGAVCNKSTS

[2] = target: Lysophosphatidic acid receptor 1 (Homo sapiens, UniProt Q92633); assay: LPAR1 Calcium Flux Assays: A cDNA encoding the human LPAR1 receptor is synthesized and cloned into pDNA3 expression plasmid. The plasmid is transfected in U937 cells using Lipofectamine 2000 (Invitrogen Corp., USA). Clones stably expressing human LPAR1 are selected using […] and identified as cells that show Ca-influx in response to LPA.U937 cells overexpressing human LPAR1 are seeded at 100,000 cells per well in a 96-well fibronectin (10 ug/ml) coated plate in 60 μl of assay buffer (HBSS containing 20 mM HEPES and 0.2% BSA) and then incubated for 60 minutes. Then 50 μl of a calcium indicator dye (Fluo-4 NW, Molecular Probes) are added to each well and incubation continued for 30 minutes at 37° C. and then 30 minutes at room temperature. 50 μl of test compounds in 4% DMSO are added to the cells and incubation continued at room temperature for 40 minutes. Cells are the stimulated by the addition of 50 μl of 128 nM LPA and intracellular calcium is measured using the FLIPR TETRA (Molecular Devices). IC50 values are determined using “Genedata Screener” analysis tool.; format: cell-based
Sequence of Lysophosphatidic acid receptor 1 (Q92633 whole entry): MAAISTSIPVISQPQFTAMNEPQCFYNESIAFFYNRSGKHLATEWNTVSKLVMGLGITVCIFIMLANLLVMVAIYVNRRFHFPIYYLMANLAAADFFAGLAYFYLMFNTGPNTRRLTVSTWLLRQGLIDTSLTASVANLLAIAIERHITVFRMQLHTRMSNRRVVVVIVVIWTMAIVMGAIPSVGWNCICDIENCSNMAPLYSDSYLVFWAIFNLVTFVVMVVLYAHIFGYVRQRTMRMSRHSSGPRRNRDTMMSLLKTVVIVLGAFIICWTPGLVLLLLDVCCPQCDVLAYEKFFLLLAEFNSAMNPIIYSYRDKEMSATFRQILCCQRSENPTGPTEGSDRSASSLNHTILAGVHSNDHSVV

`Cn1ncc(-c2ccc(-c3ccc(C4(C(=O)O)CC4)c(C(F)(F)F)c3)cn2)c1Nc1cncc(OC2CC2)n1` gave an IC50 [1] of over 10000 nM and an IC50 [2] of 22 nM.

Reference: ChEMBL document CHEMBL5729160, “Lysophosphatidic acid receptor 1 (LPAR1) inhibitor compounds” (2022)
